According to paper PMC10341573, “Design, Synthesis, and Biological Evaluation of Novel Quinazolin-4(3H)-One-Based Histone Deacetylase 6 (HDAC6) Inhibitors for Anticancer Activity” (International Journal of Molecular Sciences, 2023):
Read-outs that look alike come from different tables or passages of the source.

How the values were obtained:
[1] = biological target: T1, HDAC6 (Homo sapiens, UniProt Q9UBN7); test: HDAC enzyme activity assay (fluorogenic, Boc-Lys(acetyl)-AMC), HDAC6; assay type: biochemical; details: class IIb HDAC6; mean ± SD, triplicate
T1 construct: Full-length recombinant HDAC6 was purchased from BPS Bioscience; purchased BPS Bioscience
T1 sequence (Q9UBN7 1-1215): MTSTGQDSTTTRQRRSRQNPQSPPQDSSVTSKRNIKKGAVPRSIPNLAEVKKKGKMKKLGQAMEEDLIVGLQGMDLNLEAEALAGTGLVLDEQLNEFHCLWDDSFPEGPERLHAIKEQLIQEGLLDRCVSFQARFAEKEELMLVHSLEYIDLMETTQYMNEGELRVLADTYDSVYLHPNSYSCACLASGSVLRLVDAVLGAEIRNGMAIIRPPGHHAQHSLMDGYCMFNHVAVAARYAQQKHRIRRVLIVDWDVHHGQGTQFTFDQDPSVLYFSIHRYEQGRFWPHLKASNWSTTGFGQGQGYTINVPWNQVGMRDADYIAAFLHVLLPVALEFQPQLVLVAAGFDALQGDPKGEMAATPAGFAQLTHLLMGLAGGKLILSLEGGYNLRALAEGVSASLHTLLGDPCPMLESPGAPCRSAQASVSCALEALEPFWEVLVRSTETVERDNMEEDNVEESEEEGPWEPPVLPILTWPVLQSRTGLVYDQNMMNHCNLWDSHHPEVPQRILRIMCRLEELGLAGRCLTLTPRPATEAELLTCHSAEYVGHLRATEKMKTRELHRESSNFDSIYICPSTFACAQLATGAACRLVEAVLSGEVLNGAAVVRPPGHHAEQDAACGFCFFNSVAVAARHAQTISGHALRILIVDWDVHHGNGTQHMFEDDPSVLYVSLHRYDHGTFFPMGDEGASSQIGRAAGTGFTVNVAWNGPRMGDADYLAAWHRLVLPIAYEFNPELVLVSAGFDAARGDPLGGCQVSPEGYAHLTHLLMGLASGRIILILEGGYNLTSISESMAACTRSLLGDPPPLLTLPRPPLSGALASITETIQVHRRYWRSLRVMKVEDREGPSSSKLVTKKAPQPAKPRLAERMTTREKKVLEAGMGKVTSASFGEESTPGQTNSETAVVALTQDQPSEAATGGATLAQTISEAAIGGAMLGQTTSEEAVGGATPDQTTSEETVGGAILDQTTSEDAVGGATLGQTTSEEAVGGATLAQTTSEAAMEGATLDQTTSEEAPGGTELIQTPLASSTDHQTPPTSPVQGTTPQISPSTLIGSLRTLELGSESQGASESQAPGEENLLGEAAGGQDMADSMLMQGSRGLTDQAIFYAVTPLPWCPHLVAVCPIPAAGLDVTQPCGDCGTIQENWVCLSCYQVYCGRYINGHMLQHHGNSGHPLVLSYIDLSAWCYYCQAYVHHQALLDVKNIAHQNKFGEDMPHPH

[2] = test system: MCF7; test: MTT cell proliferation assay, MCF7; assay type: cell-based, human; details: MTT, 72 h, mean ± SD, triplicate, read-out: IC50 ± SD MCF7
[3] = test system: B16; test: MTT cell proliferation assay, B16; assay type: cell-based, murine; details: Mus musculus, B16; MTT, 72 h; mean ± SD, triplicate; read-out: IC50 ± SD B16
[4] = test system: MCF7 and HCT-116 cells; test: Clonogenic assay; assay type: cell-based, human; details: 12–14 days
Description: To evaluate the effect of compound 5c on the cell survival of MCF7 and HCT-116 cells, a clonogenic assay was performed. Colony formation of MCF7 and HCT-116 cells was inhibited by compound 5c in a dose-dependent manner, compared to the control cells treated with DMSO (Figure 11).
MCF7 and HCT-116 cells were seeded in a six-well culture plate at a density of 500 cells/well. After cells adhered completely, they were incubated in the culture medium with DMSO, 0.1 μM 5c, and 1 μM 5c. The medium, along with the treatment, was replenished every 3 days for 12–14 days. The colonies formed were fixed with a 3:1 ratio of methanol and glacial acetic acid for 10 min. The wells were then washed with 1× PBS, and cells were stained with 0.5% v/v crystal violet solution for 10 min [55]. Excess stain was washed off in running water, and images were taken after proper drying. Colonies were counted visually or using ImageJ software, NIH (Version 1.53K). The stain taken up by the colonies was dissolved in 0.1% SDS, and absorbance was read at 540 nm. Graphs were plotted using GraphPad Prism 8.0.2.

IC50 [1]: 0.58 ± 0.05 µM | IC50 ([2]; Homo sapiens, MCF7, 72 h): 13.7 µM | IC50 [2]: 13.7 ± 0.83 µM | IC50 [3]: 15 ± 3.34 µM
SMILES: Cc1ccc(-n2c(SCc3ccc(C(=O)NO)cc3)nc3ccccc3c2=O)cc1 [Compound 5c, N-hydroxy-4-(((4-oxo-3-(p-tolyl)-3,4-dihydroquinazolin-2-yl)thio)methyl)benzamide]
number of colonies ([4]; MCF7 and HCT-116, 0.1 μM): significantly reduced | cell anchorage and growth ([4]; MCF7 and HCT-116, 1 μM): almost completely arrested
